Measurements published in patent US20260209214A1, “LSD1 MODULATORS” (RECURSION PHARMACEUTICALS, INC., priority 2022, published 2026).

Target: Recombinant human LSD1 (Homo sapiens, UniProt O60341)
Assay: LSD1 inhibition assay (HTRF LSD1 Histone H3K4 mono-demethylation assay, me1->me0)
Format: biochemical
Conditions: 20 nM recombinant human LSD1, 95 nM H3K4(me1) biotinylated peptide, 15 min preincubation, 60 min at 25° C., read-out: LSD1 inhibition IC50 (nM range)
Procedure, shortened: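 Recombinant human LSD1 (20 nM) pre-incubated 15 min with 10 semi-log compound doses, then 95 nM biotinylated H3K4me1 peptide for 60 min at 25 °C in pH 8.5 Tris/NaCl buffer with 10 μM FAD, 1 mM DTT. HTRF me0-antibody read after 90 min; IC50 from 4-parameter fit.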

Structure (SMILES)	IC50
CN(CC1CC1)c1ccc(CN2[C@@H]3CC[C@H]2[C@@H](N)C3)cc1-c1ccc(C#N)c(F)c1 (racemic) [Example 254, 5'-{[(1S,2S,4R)-2-amino-7-azabicyclo[2.2.1]heptan-7-yl]methyl}-2'-[(cyclopropylmethyl)(methyl)amino]-3-fluoro-[1,1'-biphenyl]-4-carbonitrile]	10 to 25 nM
Cn1cc2cc(-c3ccc(CC4CNCCO4)cc3-c3ccc(C#N)c(F)c3)ccc2n1 (stereo not drawn) [Compound 58]	100 to 1000 nM
CCCc1c(CN2[C@H]3CC[C@@H]2[C@H](N)C3)cccc1-c1ccc(C#N)c(F)c1 (single isomer, unassigned) [Example 212]	25 to 100 nM
CC(C)c1c(CN2[C@@H]3CC[C@H]2[C@@H](N)C3)cccc1-c1ccc(C#N)c(F)c1 (racemic) [Example 220, 3'-{[(1S,2S,4R)-2-amino-7-azabicyclo[2.2.1]heptan-7-yl]methyl}-3-fluoro-2'-(propan-2-yl)-[1,1'-biphenyl]-4-carbonitrile]	25 to 100 nM
N#Cc1ccc(-c2cccc(CN3[C@H]4CC[C@@H]3[C@H](N)C4)c2CC2CC2)cc1F (single isomer, unassigned) [Example 221]	25 to 100 nM
CC(c1ccc(N2CCC2)c(-c2ccc(C#N)c(F)c2)c1)C1CNCCO1 (stereo not drawn) [Example 76, 2′-(azetidin-1-yl)-3-fluoro-5′-[1-(morpholin-2-yl)ethyl]-[1,1′-biphenyl]-4-carbonitrile]	100 to 1000 nM
N#Cc1ccc(-c2cc(CC3CNCCCO3)ccc2N2CCC2)cc1F (stereo not drawn) [Example 102, 2′-(azetidin-1-yl)-3-fluoro-5′-[(1,4-oxazepan-2-yl)methyl]-[1,1′-biphenyl]-4-carbonitrile]	25 to 100 nM
CCOCC1(O)CCN(c2ccc(CC3CNCCO3)cc2-c2ccc(C#N)c(F)c2)CC1 (stereo not drawn) [Example 63, 2′-[4-(ethoxymethyl)-4-hydroxypiperidin-1-yl]-3-fluoro-5′-[(morpholin-2-yl)methyl]-[1,1′-biphenyl]-4-carbonitrile]	100 to 1000 nM
N#Cc1ccc(-c2cccc(OC3CC4CNC3C4)c2-c2ccns2)cc1F (stereo not drawn) [Example 112, 3′-{2-azabicyclo[2.2.1]heptan-6-yloxy}-3-fluoro-2′-(1,2-thiazol-5-yl)-[1,1′-biphenyl]-4-carbonitrile]	10 to 25 nM
N#Cc1ccc(-c2cc(CC3CNCCO3)ccc2N2CCCC3(CCOC3)C2)cc1F (stereo not drawn) [Example 118, 3-fluoro-5′-[(morpholin-2-yl)methyl]-2′-{2-oxa-7-azaspiro[4.5]decan-7-yl}-[1,1′-biphenyl]-4-carbonitrile]	100 to 1000 nM
N#Cc1ccc(-c2cc(CC3CNCCO3)ccc2N2CC3(CCOCC3)C2)cc1F (stereo not drawn) [Example 62, 3-fluoro-5′-[(morpholin-2-yl)methyl]-2′-{7-oxa-2-azaspiro[3.5]nonan-2-yl}-[1,1′-biphenyl]-4-carbonitrile]	100 to 1000 nM
N#Cc1ccc(-c2cccc(CC3CNCCO3)c2-c2ncco2)cc1F (stereo not drawn) [Example 65, 3-fluoro-3′-[(morpholin-2-yl)methyl]-2′-(1,3-oxazol-2-yl)-[1,1′-biphenyl]-4-carbonitrile]	> 1000 nM
N#Cc1ccc(-c2ccc(F)c(CN3[C@@H]4CC[C@H]3[C@@H](N)C4)c2-c2ccns2)cc1F (racemic) [Example 207, 3'-{[(1S,2S,4R)-2-amino-7-azabicyclo[2.2.1]heptan-7-yl]methyl}-3,4'-difluoro-2'-(1,2-thiazol-5-yl)-[1,1'-biphenyl]-4-carbonitrile]	< 10 nM
N#Cc1ccc(-c2cccc(CN3[C@@H]4CC[C@H]3[C@@H](N)C4)c2-c2ccns2)cc1F [Example 192, N[C@H]1C[C@H]2CC[C@@H]1N2Cc3cccc(c4ccc(C#N)c(F)c4)c3c5ccns5]	< 10 nM
CCN[C@@H]1C[C@@H]2CC[C@H]1N2Cc1cccc(-c2ccc(C#N)c(F)c2)c1C1CC1 (single isomer, unassigned) [Example 201]	10 to 25 nM
COCC1(O)CCN(c2ccc(CC3CNCCO3)cc2-c2ccc(C#N)c(F)c2)CC1 (stereo not drawn) [Example 126, COCC1(O)CCN(CC1)c2ccc(CC3CNCCO3)cc2c4ccc(C#N)c(F)c4]	100 to 1000 nM
N#Cc1ccc(-c2cc(CC3CNCCO3)ccc2N2CCC3(CCOC3)C2)cc1F (stereo not drawn) [Example 119, 3-fluoro-5′-[(morpholin-2-yl)methyl]-2′-{2-oxa-7-azaspiro[4.4]nonan-7-yl}-[1,1′-biphenyl]-4-carbonitrile]	100 to 1000 nM
CN[C@@H]1C[C@@H]2CC[C@H]1N2Cc1cccc(-c2ccc(C#N)c(F)c2)c1-c1ccns1 (single isomer, unassigned) [Example 190]	< 10 nM
N#Cc1ccc(-c2cccc(CC3CNCCO3)c2C#N)cc1F (stereo not drawn) [Example 84, 3′-fluoro-3-[(morpholin-2-yl)methyl]-[1,1′-biphenyl]-2,4′-dicarbonitrile]	> 1000 nM
N#Cc1ccc(-c2cccc(N3CCC(N)CC3)c2-c2cncs2)cc1F [Example 115, 3'-(4-aminopiperidin-1-yl)-3-fluoro-2'-(1,3-thiazol-5-yl)-[1,1'-biphenyl]-4-carbonitrile]	10 to 25 nM
CN(CC1CC1)c1c(CN2[C@@H]3CC[C@H]2[C@@H](N)C3)cccc1-c1ccc(C#N)c(F)c1 (racemic) [Example 269, 3'-{[(1S,2S,4R)-2-amino-7-azabicyclo[2.2.1]heptan-7-yl]methyl}-2'-[(cyclopropylmethyl)(methyl)amino]-3-fluoro-[1,1'-biphenyl]-4-carbonitrile]	100 to 1000 nM
Cc1cnsc1-c1c(CC2CNCCO2)cccc1-c1ccc(C#N)c(F)c1 (stereo not drawn) [Example 45, 3-fluoro-2′-(4-methyl-1,2-thiazol-5-yl)-3′-[(morpholin-2-yl)methyl]-[1,1′-biphenyl]-4-carbonitrile]	100 to 1000 nM
N#Cc1ccc(-c2cc(CN3[C@@H]4CC[C@H]3[C@@H](N)C4)ccc2OC[C@@H]2CCCOC2)cc1F (racemic) [Example 231, 5'-{[(1S,2S,4R)-2-amino-7-azabicyclo[2.2.1]heptan-7-yl]methyl}-3-fluoro-2'-{[(3R)-oxan-3-yl]methoxy}-[1,1'-biphenyl]-4-carbonitrile]	10 to 25 nM

Second part, the compound after the results:

IC50	Structure (SMILES)
100 to 1000 nM	N#Cc1ccc(-c2cccc(CC3CNCCO3)c2-c2ccncc2)cc1F (stereo not drawn) [Example 148, 3-fluoro-3′-[(morpholin-2-yl)methyl]-2′-(pyridin-4-yl)-[1,1′-biphenyl]-4-carbonitile]
10 to 25 nM	N#Cc1ccc(-c2cccc(COC3CCNC3)c2-c2cnco2)cc1F (stereo not drawn) [Example 154, 3-fluoro-2′-(1,3-oxazol-5-yl)-3′-[(pyrrolidin-3-yloxy)methyl]-[1,1′-biphenyl]-4-carbonitrile]
> 1000 nM	C[C@@H]1CC[C@H](N)CN1Cc1cccc(-c2ccc(C#N)c(F)c2)c1Cl [Example 330, 3'-{[(2R,5S)-5-amino-2-methylpiperidin-1-yl]methyl}-2'-chloro-3-fluoro-[1,1'-biphenyl]-4-carbonitrile]
100 to 1000 nM	CN1C[C@@H]2C[C@H]1CN2Cc1cc(-c2ccc(C#N)c(F)c2)cc(N2CCCC2)c1 (stereo in doubt) [Example 300, 2-fluoro-4-[3-[[(1S,4S)-5-methyl-2,5-diazabicyclo[2.2.1]heptan-2-yl]methyl]-5-pyrrolidin-1-yl-phenyl]benzonitrile]
> 1000 nM	C[C@@H]1CCN(Cc2cccc(-c3ccc(C#N)c(F)c3)c2Cl)C[C@H]1N (racemic) [Example 331, 3'-{[(3S,4R)-3-amino-4-methylpiperidin-1-yl]methyl}-2'-chloro-3-fluoro-[1,1'-biphenyl]-4-carbonitrile]
100 to 1000 nM	CC1(O)CCN(c2ccc(CC3CNCCO3)c(F)c2-c2ccc(C#N)c(F)c2)CC1 (stereo not drawn) [Example 155, 2′,3-difluoro-6′-(4-hydroxy-4-methylpiperidin-1-yl)-3′-[(morpholin-2-yl)methyl]-[1,1′-biphenyl]-4-carbonitrile]
100 to 1000 nM	CN1CCC12CCN(Cc1c(F)ccc(-c3ccc(C#N)c(F)c3)c1Cl)C2 (stereo not drawn) [Example 289, 2'-chloro-3,4'-difluoro-3'-({1-methyl-1,6-diazaspiro[3.4]octan-6-yl}methyl)-[1,1'-biphenyl]-4-carbonitrile]
100 to 1000 nM	N#Cc1ccc(-c2cc(CC3CNCCO3)ccc2N2CCCOCC2)cc1F (stereo not drawn) [Example 143, 3-fluoro-5'-[(morpholin-2-yl)methyl]-2'-(1,4-oxazepan-4-yl)-[1,1'-biphenyl]-4-carbonitrile]
100 to 1000 nM	N#Cc1ccc(-c2cccc(CN3CC4CCC3CN4)c2Cl)cc1F (stereo not drawn) [Example 283, 2'-chloro-3'-({2,5-diazabicyclo[2.2.2]octan-2-yl}methyl)-3-fluoro-[1,1'-biphenyl]-4-carbonitrile]
< 10 nM	Cn1nc2ccc(-c3ccc(CN4C[C@]5(N)CC[C@H]4C5)cc3-c3ccc(C#N)c(F)c3)cc2c1Cl [Example 263, 5'-{[(1S,4S)-4-amino-2-azabicyclo[2.2.1]heptan-2-yl]methyl}-2'-(3-chloro-2-methyl-2H-indazol-5-yl)-3-fluoro-[1,1'-biphenyl]-4-carbonitrile]
100 to 1000 nM	Cc1cc(CN2C[C@@H]3C[C@H]2CN3C(C)C)c(Cl)c(-c2ccc(C#N)c(F)c2)c1 [Example 297, 2'-chloro-3-fluoro-5'-methyl-3'-{[(1S,4S)-5-(propan-2-yl)-2,5-diazabicyclo[2.2.1]heptan-2-yl]methyl}-[1,1'-biphenyl]-4-carbonitrile]
> 1000 nM	CC(C)(c1ccc(N2CCC2)c(-c2ccc(C#N)c(F)c2)c1)C1CNCCO1 (stereo not drawn) [Example 136, 2′-(azetidin-1-yl)-3-fluoro-5′-[2-(morpholin-2-yl)propan-2-yl]-[1,1′-biphenyl]-4-carbonitrile]
25 to 100 nM	N#Cc1ccc(-c2ccc(F)c(CN3C[C@]4(N)CC[C@H]3C4)c2Cl)cc1F [Example 208, 3'-{[(1S,4S)-4-amino-2-azabicyclo[2.2.1]heptan-2-yl]methyl}-2'-chloro-3,4'-difluoro-[1,1'-biphenyl]-4-carbonitrile]
